Experimental data reported in ChEMBL document CHEMBL1614632, “Trend analysis of a database of intravenous pharmacokinetic parameters in humans for 670 drug compounds” (Drug Metab Dispos, 2008).
Numbered stars: 1 amine (or outer) side, 2 acyl side, 3 side chain; on linkers, the order of the positions; unused ones are H or OH. Bridge positions count the residues as written; N and C are the ends. Square brackets hold non-standard residues; d marks the D form. Peptide text beside a SMILES is read from it. * marks the point of attachment. pTerphenylCO(4''-OnC5H11) = CCCCCOc1ccc(-c2ccc(-c3ccc(C(=O)*)cc3)cc2)cc1; Orn(4R-OH,5R-OH) = O=C([C@H](C[C@@H](O)[C@@H](O)N[*:3])N[*:1])[*:2]; hTyr(3S-OH,4S-OH) = N[C@H](C(=O)O)[C@H](O)[C@@H](O)c1ccc(O)cc1; Pro(3S-OH,4S-Me) = C[C@H]1CN[C@H](C(=O)O)[C@H]1O; Hyp = O=C(O)[C@@H]1C[C@@H](O)CN1

Tests used:
[1] = clinical; settings: human, in vivo, iv, CL
[2] = clinical; settings: human, in vivo, iv, Vdss
[3] = clinical; settings: human, in vivo, iv
[4] = clinical; settings: human, in vivo, iv, t1/2

Row | SMILES | clearance [1] [mL/min/kg] | Vd [2] [L/kg] | MRT [3] [h] | half-life [4] [h]
1 | Nc1ncnc2c1ncn2CCOCP(=O)(O)O [ADEFOVIR] | 3.7 | 0.42 | 1.9 | 1.6
2 | CN(C)Cc1nnc2n1-c1ccc(Cl)cc1C(c1ccccc1)=NC2 [ADINAZOLAM] | 6.2 | 0.98 | 2.6 | 2.1
3 | COc1cc2nc(N(C)CCCNC(=O)C3CCCO3)nc(N)c2cc1OC (stereo not given) [ALFUZOSIN] | 5.9 | 1.5 | 4.2 | 4.8
4 | C=CCN1CCCC1CNC(=O)c1cc2[nH]nnc2cc1OC (stereo not given) [ALIZAPRIDE] | 6.6 | 1.6 | 4 | 2.8
5 | Cc1[nH]cnc1CN1CCc2c(c3ccccc3n2C)C1=O [ALOSETRON] | 8.7 | 1.1 | 2.1 | 1.6
6 | Cc1nnc2n1-c1ccc(Cl)cc1C(c1ccccc1)=NC2 [ALPRAZOLAM] | 0.74 | 0.8 | 18 | 12
7 | CC1(C)S[C@@H]2[C@H](/N=C/N3CCCCCC3)C(=O)N2[C@H]1C(=O)O [AMDINOCILLIN] | 6.3 | 0.37 | 1 | 1.1
8 | CN(C)CCC=C1c2ccccc2CCc2ccccc21 [AMITRIPTYLINE] | 6.1 | 8.7 | 24 | 17
9 | CC1(C)S[C@@H]2[C@H](NC(=O)[C@H](N)c3ccc(O)cc3)C(=O)N2[C@H]1C(=O)O [AMOXICILLIN] | 3.3 | 0.25 | 1.3 | 1.1
10 | CC1(C)S[C@@H]2[C@H](NC(=O)[C@H](N)c3ccccc3)C(=O)N2[C@H]1C(=O)O [AMPICILLIN] | 2.8 | 0.22 | 1.3 | 1.4
11 | CCCCCOc1ccc(-c2ccc(-c3ccc(C(=O)N[C@H]4C[C@@H](O)[C@@H](O)NC(=O)[C@@H]5[C@@H](O)[C@@H](C)CN5C(=O)[C@H]([C@@H](C)O)NC(=O)[C@H]([C@H](O)[C@@H](O)c5ccc(O)cc5)NC(=O)[C@@H]5C[C@@H](O)CN5C(=O)[C@H]([C@@H](C)O)NC4=O)cc3)cc2)cc1 [ANIDULAFUNGIN] ({pTerphenylCO(4''-OnC5H11)}-[Orn(4R-OH,5R-OH)]T[Hyp][hTyr(3S-OH,4S-OH)]T[Pro(3S-OH,4S-Me)]; lactam 1-C) | 0.21 | 0.57 | 45 | 40
12 | Cc1cc(=O)n(-c2ccccc2)n1C [ANTIPYRINE] | 0.64 | 0.77 | 20 | 12
13 | CN(C)C(=O)Oc1cc(OC(=O)N(C)C)cc(C(O)CNC(C)(C)C)c1 (stereo not given) [BAMBUTEROL] | 18 | 1.6 | 1.4 | 2.6
14 | O=C(CCCN1CCC(n2c(O)nc3ccccc32)CC1)c1ccc(F)cc1 [BENPERIDOL] | 8.3 | 3.8 | 7.5 | 5.8
15 | CC(C)NCC(O)COc1ccc(CCOCC2CC2)cc1 (stereo not given) [BETAXOLOL] | 3.4 | 4.8 | 24 | 17
16 | CC(C)(C)[C@]1(O)CC2OC(=O)CC23C(=O)OC2OC(=O)[C@H](O)C231 (stereo not given in full) [BILOBALIDE] | 10 | 2.5 | 4 | 3.2
17 | N#Cc1ccc2c(c1)CN(S(=O)(=O)c1cccs1)[C@H](Cc1ccccc1)CN2Cc1cnc[nH]1 [BMS-214662] | 9.6 | 0.84 | 1.4 | 1.6
18 | O=C1CN=C(c2ccccn2)c2cc(Br)ccc2N1 [BROMAZEPAM] | 0.51 | 0.85 | 28 | 21
19 | CCCC1O[C@@H]2C[C@H]3[C@@H]4CCC5=CC(=O)C=C[C@]5(C)[C@H]4[C@@H](O)C[C@]3(C)[C@]2(C(=O)CO)O1 (stereo not given in full) [BUDESONIDE] | 20 | 3.9 | 3.2 | 2.8
20 | COc1cc(OC)c(C(=O)CCCN2CCCC2)c(OC)c1 [BUFLOMEDIL] | 5.6 | 1.3 | 3.9 | 3.3
21 | CCCCNc1cc(C(=O)O)cc(S(N)(=O)=O)c1Oc1ccccc1 [BUMETANIDE] | 2.5 | 0.16 | 1.1 | 1.2
22 | CCCCN1CCCCC1C(=O)Nc1c(C)cccc1C (stereo not given) [BUPIVACAINE] | 4.3 | 0.84 | 3.3 | 3.1
23 | CS(=O)(=O)OCCCCOS(C)(=O)=O [BUSULFAN] | 2.4 | 0.55 | 3.8 | 3.4
24 | Cn1c(=O)c2c(ncn2C)n(C)c1=O [CAFFEINE] | 1.4 | 0.63 | 7.5 | 4.9
25 | CC1(C)S[C@@H]2[C@H](NC(=O)C(C(=O)O)c3ccccc3)C(=O)N2[C@H]1C(=O)O (stereo not given in full) [CARBENICILLIN] | 1.9 | 0.17 | 1.5 | 1.1

Row | SMILES | clearance [1] [mL/min/kg] | Vd [2] [L/kg] | MRT [3] [h] | half-life [4] [h]
26 | COc1ccccc1OCCNCC(O)COc1cccc2[nH]c3ccccc3c12 (stereo not given) [CARVEDILOL] | 7.8 | 1.3 | 2.8 | 2.4
27 | CC1=C(C(=O)O)N2C(=O)[C@@H](NC(=O)[C@H](N)c3ccc(O)cc3)[C@H]2SC1 [CEFADROXIL] | 2.5 | 0.23 | 1.5 | 1.1
28 | N[C@@H](C(=O)N[C@@H]1C(=O)N2C(C(=O)O)=C(CSc3c[nH]nn3)CS[C@H]12)c1ccc(O)cc1 [CEFATRIZINE] | 3.3 | 0.22 | 1.1 | 1.2
29 | CC=CC1=C(C(=O)O)N2C(=O)[C@@H](NC(=O)[C@H](N)c3ccc(O)cc3)[C@H]2SC1 [CEFPROZIL] | 2.9 | 0.21 | 1.2 | 1.2
30 | CC1=C(C(=O)O)N2C(=O)[C@@H](NC(=O)[C@H](N)C3=CCC=CC3)[C@H]2SC1 [CEPHRADINE] | 3.3 | 0.21 | 1.1 | 0.85
31 | COCc1c(C(C)C)nc(C(C)C)c(/C=C/[C@@H](O)C[C@@H](O)CC(=O)O)c1-c1ccc(F)cc1 [CERIVASTATIN] | 2.9 | 0.33 | 1.8 | 1.8
32 | O=C(O)CCCc1ccc(N(CCCl)CCCl)cc1 [CHLORAMBUCIL] | 2.8 | 0.26 | 1.5 | 1.1
33 | Clc1cccc(N2CCNCC2)c1 [CHLOROPHENYLPIPERAZINE] | 6.1 | 2.5 | 7 | 4.7
34 | CN(C)CCCN1c2ccccc2Sc2ccc(Cl)cc21 [CHLORPROMAZINE] | 16 | 10 | 10 | 11
35 | CCCNC(=O)NS(=O)(=O)c1ccc(Cl)cc1 [CHLORPROPAMIDE] | 0.045 | 0.19 | 70 | 46
36 | CN(C)[C@@H]1C(O)=C(C(N)=O)C(=O)[C@@]2(O)C(O)=C3C(=O)c4c(O)ccc(Cl)c4[C@@](C)(O)[C@H]3C[C@@H]12 [CHLORTETRACYCLINE] | 2 | 0.9 | 7.4 | 7
37 | NS(=O)(=O)c1cc(C2(O)NC(=O)c3ccccc32)ccc1Cl (stereo not given) [CHLORTHALIDONE] | 1.5 | 3.9 | 43 | 36
38 | CCC#CC[C@H](C)[C@H](O)C#C[C@@H]1[C@H]2C/C(=C/COCC(=O)O)C[C@H]2C[C@H]1O [CICAPROST] | 3.8 | 0.08 | 0.35 | 1.1
39 | Nc1ccn(C[C@@H](CO)OCP(=O)(O)O)c(=O)n1.O.O [CIDOFOVIR] | 2.5 | 0.49 | 3.3 | 2.6
40 | c1ccc(C2(c3ccccc3)CC2C2=NCCN2)cc1 (stereo not given) [CIFENLINE] | 8.6 | 4.1 | 7.8 | 7.3
41 | COc1ccc([C@]2(C#N)CC[C@@H](C(=O)O)CC2)cc1OC1CCCC1 [CILOMILAST] | 0.5 | 0.23 | 8.5 | 7.9
42 | CN/C(=N/CCSCc1nc[nH]c1C)NC#N [CIMETIDINE] | 8.1 | 1.2 | 2.5 | 2.2
43 | CC[C@H]1OC(=O)[C@H](C)[C@@H](O[C@H]2C[C@@](C)(OC)[C@@H](O)[C@H](C)O2)[C@H](C)[C@@H](O[C@@H]2O[C@H](C)C[C@H](N(C)C)[C@H]2O)[C@](C)(OC)C[C@@H](C)C(=O)[C@H](C)[C@@H](O)[C@]1(C)O [CLARITHROMYCIN] | 7.3 | 1.5 | 3.4 | 2.8
44 | O=C(O)[C@H]1/C(=C/CO)O[C@@H]2CC(=O)N21 [CLAVULANIC ACID] | 3.1 | 0.22 | 1 | 0.9
45 | NC1CCN(c2c(F)cc3c(=O)c(C(=O)O)cn(C4CC4)c3c2Cl)C1 (stereo not given) [CLINAFLOXACIN] | 4.7 | 1.9 | 6.7 | 5.4
46 | O=C1CN=C(c2ccccc2Cl)c2cc([N+](=O)[O-])ccc2N1 [CLONAZEPAM] | 0.88 | 2.9 | 55 | 38
47 | O=C(O)C1N=C(c2ccccc2)c2cc(Cl)ccc2NC1=O (stereo not given) [CLORAZEPIC ACID] | 1.1 | 0.2 | 3 | 2.4
48 | CN1C(=O)CC[C@H]1c1cccnc1 [COTININE] | 0.89 | 1.1 | 21 | 17
49 | O=C1CN(/N=C/c2ccc(-c3ccc([N+](=O)[O-])cc3)o2)C(O)=N1 [DANTROLENE] | 0.43 | 0.37 | 14 | 10
50 | Nc1ncn([C@H]2C[C@H](O)[C@@H](CO)O2)c(=O)n1 [DECITABINE] | 130 | 4.6 | 0.59 | 0.58
